Reference: patent US20240307362A1 (priority 2019, published 2024)
pIC50: −log10 of the molar value. Values joined by “and” are separate entries in the source; they are usually repeats but may differ in a detail not shown here. Identical values can stand only once. Like-named read-outs stand apart in the source and are kept apart here.

Columns and labels:
human Bub1 = human Bub1 (Homo sapiens (Human), UniProt O43683); test: Bub1 high ATP kinase assay (TR-FRET); type: biochemical
From the text: Bub1-inhibitory activity of compounds of the present invention at a high ATP concentration was quantified employing the Bub1 TR-FRET high ATP kinase assay as described in the following paragraphs.
N-terminally His6-tagged recombinant catalytic domain of human Bub1 (amino acids 704-1085), expressed in insect cells (Hi5) and purified by Ni-NTA affinity chromatography and subsequent size exclusion chromatography, was used as enzyme.

Ba/F3-EGFR-insSVD = test: Ba/F3 cell survival assay, EGFR-insSVD; type: cell-based
Method: (§1) 293T cells from ATCC were transfected with pBABEpuro expression constructs for WT EGFR or EGFR-insSVD and pCL-Eco packaging vector using Fugene-6 transfection reagent from Promega. Plates were incubated at 37° C. for 48 h. Retrovirus was harvested by filtering the media supernatant through a 0.45 μm filter.
(§2) Ba/F3 cells purchased from DSMZ were grown in RPMI+10% FBS+10 ng/mL IL-3 and infected with filtered retroviral supernatant at a 1:2 dilution. Polybrene was added to a concentration of 8 μg/mL, plates were spun for 90 min, and incubated overnight at 37° C. 2 μg/mL puromycin was added to the infected cells 24 h after infection and cells were continually grown in the presence of puromycin and 10 ng/mL IL-3. Following stably expressing Ba/F3 cell lines were generated: Ba/F3-EGFR-WT, Ba/F3-EGFR-insSVD, (Ba/F3-vector-control).
For cell survival assays, Ba/F3 cells were grown to a density of 1-2 million cells per mL, spun down and resuspended in media without IL-3, and replated at a concentration 200,000-500,000 cells per mL. The cells ectopically expressing WT EGFR or EGFR-insSVD were plated with 10 ng/mL Millipore Culture grade EGF. The cells ectopically expressing pBABEpuro empty vector were plated with 10 ng/mL IL-3.
2 days later, cells were plated in 50 μL in a 384 well plate at a concentration of 4000 cells per well for cells assayed in the absence of IL-3 and 2000 cells per well for cells assayed in the presence of IL-3. 100 nL of compound was added to each well using a 100 nL pin head, and plates were incubated at 37° C. for 48 h.
Cell viability was measured by adding 20 μL of Cell Titer-Glo Luminescent Cell Viability Reagent diluted 1:3 in PBS. Plates were sealed with Perkin Elmer Top-Seal, inverted several times to mix, and immediately centrifuged at 1000 rpm for 2 min. Plates were incubated in low light conditions for 8-10 min and luminescence was measured.

Ba/F3-EGFR-WT = test: Ba/F3 cell survival assay, WT EGFR; type: cell-based
Method: as §1, §2
The cells ectopically expressing WT EGFR or EGFR-insSVD were plated with 10 ng/mL Millipore Culture grade EGF. The cells ectopically expressing pBABEpuro empty vector were plated with 10 ng/mL IL-3.
100 nL of compound was added to each well using a 100 nL pin head, and plates were incubated at 37° C. for 48 h.
Cell viability was measured by adding 20 μL of Cell Titer-Glo Luminescent Cell Viability Reagent diluted 1:3 in PBS. Plates were sealed with Perkin Elmer Top-Seal, inverted several times to mix, and immediately centrifuged at 1000 rpm for 2 min.

[1] = read-out: Bub1 high ATP (2 mM) IC50, 2 mM ATP
[2] = Mus musculus, BaF3, 48 h, read-out: BA/F3 (insSVD) IC50, cell viability, Cell Titer-Glo, 48 h, with 10 ng/mL EGF, without IL-3
[3] = Mus musculus, BaF3, 48 h, read-out: BA/F3 (wild type) IC50, cell viability, Cell Titer-Glo, 48 h, with 10 ng/mL EGF, without IL-3
[4] = Bub1 high ATP (2 mM) IC50, 2 mM ATP
[5] = read-out: BA/F3 (insSVD) IC50, cell viability, Cell Titer-Glo, 48 h, with 10 ng/mL EGF, without IL-3
[6] = read-out: BA/F3 (wild type) IC50, cell viability, Cell Titer-Glo, 48 h, with 10 ng/mL EGF, without IL-3

Chain of human Bub1 (O43683 704-1085): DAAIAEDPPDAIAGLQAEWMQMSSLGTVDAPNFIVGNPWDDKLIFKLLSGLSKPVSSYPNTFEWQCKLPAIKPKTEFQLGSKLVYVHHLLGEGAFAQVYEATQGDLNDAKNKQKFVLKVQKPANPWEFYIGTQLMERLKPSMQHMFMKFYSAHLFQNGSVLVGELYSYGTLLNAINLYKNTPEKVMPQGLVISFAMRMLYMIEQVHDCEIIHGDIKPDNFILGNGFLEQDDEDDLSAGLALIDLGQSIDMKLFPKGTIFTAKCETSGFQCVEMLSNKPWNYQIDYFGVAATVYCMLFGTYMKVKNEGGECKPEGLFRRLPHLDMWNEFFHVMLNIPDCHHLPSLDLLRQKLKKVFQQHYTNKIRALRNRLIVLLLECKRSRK

Row | SMILES | pIC50 (human Bub1; [1]) | pIC50 (Ba/F3-EGFR-insSVD; [2]) | pIC50 (Ba/F3-EGFR-WT; [3]) | pIC50 (human Bub1; [4]) | pIC50 (Ba/F3-EGFR-insSVD; [5]) | pIC50 (Ba/F3-EGFR-WT; [6])
1 | COc1c(Cl)cccc1Nc1c(-c2ccncc2OCC2(C)CCN2CC(F)(F)F)[nH]c2c1C(=O)NCC2 (stereo not shown) [Example 32, 3-(3-chloro-2-methoxyanilino)-2-(3-{[2-methyl-1-(2,2,2-trifluoroethyl)azetidin-2-yl]methoxy}pyridin-4-yl)-1,5,6,7-tetrahydro-4H-pyrrolo[3,2-c]pyridin-4-one] | < 4.70 | 7.91 | 6.53 | – | – | –
2 | Cc1c(Cl)cc(F)cc1Nc1c(-c2ccncc2OCC2CCO2)[nH]c2c1C(=O)NCC2 (single isomer, unassigned) [Example 42, 3-(3-chloro-5-fluoro-2-methylanilino)-2-{3-[(oxetan-2-yl)methoxy]pyridin-4-yl}-1,5,6,7-tetrahydro-4H-pyrrolo[3,2-c]pyridin-4-one] | – | – | – | < 4.70 | 7.14 | 6.26
3 | Cc1cccc(Nc2c(-c3ccncc3OCCC3CCO3)[nH]c3c2C(=O)NCC3)c1Cl (stereo not shown) [Example 62, 3-(2-chloro-3-methylanilino)-2-{3-[2-(oxetan-2-yl)ethoxy]pyridin-4-yl}-1,5,6,7-tetrahydro-4H-pyrrolo[3,2-c]pyridin-4-one] | 5.28 | 7.38 | 5.43 | < 5.24 | – | –
4 | Cc1cccc(Nc2c(-c3ccncc3OCC3CCO3)[nH]c3c2C(=O)NCC3)c1Cl (single isomer, unassigned; (-)) [Example 39, (−)-3-(2-chloro-3-methylanilino)-2-{3-[(oxetan-2-yl)methoxy]pyridin-4-yl}-1,5,6,7-tetrahydro-4H-pyrrolo[3,2-c]pyridin-4-one] | 5.08 | – | – | – | 6.33 | 5.78
5 | CC1(C)COC1COc1cnccc1-c1[nH]c2c(c1Nc1cccc(Cl)c1OC(F)F)C(=O)NCC2 (single isomer, unassigned) [Example 73, 3-[3-chloro-2-(difluoromethoxy)anilino]-2-(3-{[3,3-dimethyloxetan-2-yl]methoxy}pyridin-4-yl)-1,5,6,7-tetrahydro-4H-pyrrolo[3,2-c]pyridin-4-one] | < 4.70 | – | 5.72 | – | 7.03 | –
6 | COc1c(Nc2c(-c3ccncc3OCC3CCO3)[nH]c3c2C(=O)NCC3)ccc(F)c1Cl (racemic) [Example 13, 3-(3-chloro-4-fluoro-2-methoxyanilino)-2-{3-[(oxetan-2-yl)methoxy]pyridin-4-yl}-1,5,6,7-tetrahydro-4H-pyrrolo[3,2-c]pyridin-4-one] | < 4.70 | 6.46 | 5.64 | – | – | –
7 | Cc1c(Cl)cc(F)cc1Nc1c(-c2ccncc2OCC2CCO2)[nH]c2c1C(=O)NCC2 (single isomer, unassigned) [Example 41, 3-(3-chloro-5-fluoro-2-methylanilino)-2-{3-[(oxetan-2-yl)methoxy]pyridin-4-yl}-1,5,6,7-tetrahydro-4H-pyrrolo[3,2-c]pyridin-4-one] | – | – | – | 5.20 | 6.46 | 5.75
8 | COc1c(Br)cccc1Nc1c(-c2ccncc2OCC2CCO2)[nH]c2c1C(=O)NCC2 (single isomer, unassigned) [Example 35, 3-(3-bromo-2-methoxyanilino)-2-{3-[(oxetan-2-yl)methoxy]pyridin-4-yl}-1,5,6,7-tetrahydro-4H-pyrrolo[3,2-c]pyridin-4-one] | – | – | – | 5.30 | 6.69 | 5.87
9 | COc1c(F)cccc1Nc1c(-c2ccncc2OCC2(C)CCO2)[nH]c2c1C(=O)NCC2 (single isomer, unassigned; (+)) [Example 21, (+)-3-(3-fluoro-2-methoxyanilino)-2-{3-[(2-methyloxetan-2-yl)methoxy]pyridin-4-yl}-1,5,6,7-tetrahydro-4H-pyrrolo[3,2-c]pyridin-4-one] | < 4.70 | – | – | – | 7.39 | 6.24
10 | O=C1NCCc2[nH]c(-c3ccncc3OCC3COC3)c(Nc3cccc(Cl)c3OC(F)F)c21 [Example 17, 3-[3-chloro-2-(difluoromethoxy)anilino]-2-{3-[(oxetan-3-yl)methoxy]pyridin-4-yl}-1,5,6,7-tetrahydro-4H-pyrrolo[3,2-c]pyridin-4-one] | 5.12 | 6.75 | 5.76 | – | – | –
11 | COc1c(Cl)cccc1Nc1c(-c2ccncc2OCCC2CCO2)[nH]c2c1C(=O)NCC2 (single isomer, unassigned; (+)) [Example 25, (+)-3-(3-chloro-2-methoxyanilino)-2-{3-[2-(oxetan-2-yl)ethoxy]pyridin-4-yl}-1,5,6,7-tetrahydro-4H-pyrrolo[3,2-c]pyridin-4-one] | 5.97 | 8.38 | 6.92 | – | – | –
12 | COc1c(Br)cccc1Nc1c(-c2ccncc2OCC2CCO2)[nH]c2c1C(=O)NCC2 (racemic) [Example 33, 3-(3-bromo-2-methoxyanilino)-2-{3-[(oxetan-2-yl)methoxy]pyridin-4-yl}-1,5,6,7-tetrahydro-4H-pyrrolo[3,2-c]pyridin-4-one] | 5.09 | 7.48 | 5.95 | – | – | –
13 | O=C1NCCc2[nH]c(-c3ccncc3OCC3CCO3)c(Nc3cccc(Cl)c3Cl)c21 (single isomer, unassigned; (-)) [Example 12, (−)-3-(2,3-dichloroanilino)-2-{3-[(oxetan-2-yl)methoxy]pyridin-4-yl}-1,5,6,7-tetrahydro-4H-pyrrolo[3,2-c]pyridin-4-one] | 4.95 | – | – | – | 6.72 | 6.00
14 | COc1c(F)cccc1Nc1c(-c2ccncc2OCC2OCC2(C)C)[nH]c2c1C(=O)NCC2 (racemic) [Example 52, 2-{3-[(3,3-dimethyloxetan-2-yl)methoxy]pyridin-4-yl}-3-(3-fluoro-2-methoxyanilino)-1,5,6,7-tetrahydro-4H-pyrrolo[3,2-c]pyridin-4-one] | < 4.70 | 7.42 | 6.27 | – | – | –
15 | COc1c(Cl)cccc1Nc1c(-c2ccncc2OCC2(C)CCN2C)[nH]c2c1C(=O)NCC2 (stereo not shown) [Example 31, 3-(3-chloro-2-methoxyanilino)-2-{3-[(1,2-dimethylazetidin-2-yl)methoxy]pyridin-4-yl}-1,5,6,7-tetrahydro-4H-pyrrolo[3,2-c]pyridin-4-one] | 5.12 | 7.63 | 6.41 | – | – | –
16 | Cc1c(Cl)cccc1Nc1c(-c2ccncc2OC[C@H]2CCO2)[nH]c2c1C(=O)NCC2 [Example 9, 3-(3-chloro-2-methylanilino)-2-(3-{[(2R)-oxetan-2-yl]methoxy}pyridin-4-yl)-1,5,6,7-tetrahydro-4H-pyrrolo[3,2-c]pyridin-4-one] | 5.80 | 6.57 | 5.92 | – | – | –
17 | Cc1c(Cl)cccc1Nc1c(-c2ccncc2OC[C@@H]2CCO2)[nH]c2c1C(=O)NCC2 [Example 8, 3-(3-chloro-2-methylanilino)-2-(3-{[(2S)-oxetan-2-yl]methoxy}pyridin-4-yl)-1,5,6,7-tetrahydro-4H-pyrrolo[3,2-c]pyridin-4-one] | 5.12 | 7.90 | 6.64 | – | – | –
18 | COc1c(Nc2c(-c3ccncc3OCC3CCO3)[nH]c3c2C(=O)NCC3)ccc(F)c1Cl (single isomer, unassigned; (+)) [Example 15, (+)-3-(3-chloro-4-fluoro-2-methoxyanilino)-2-{3-[(oxetan-2-yl)methoxy]pyridin-4-yl}-1,5,6,7-tetrahydro-4H-pyrrolo[3,2-c]pyridin-4-one] | < 4.70 | – | – | – | 6.77 | 5.62
19 | COc1c(F)cccc1Nc1c(-c2ccncc2OCC2(C)CCO2)[nH]c2c1C(=O)NCC2 (racemic) [Example 19, 3-(3-fluoro-2-methoxyanilino)-2-{3-[(2-methyloxetan-2-yl)methoxy]pyridin-4-yl}-1,5,6,7-tetrahydro-4H-pyrrolo[3,2-c]pyridin-4-one] | 4.86 and < 4.70 | 7.18 | 5.69 | – | – | –
